The supplement of paper PMC10307832

Legend:
Assay in all cases: relative viability (nuclei count vs DMSO), 5 days (fraction); higher = more cells survive
Tosedostat + AZD7762 = compound: CC(C)C[C@@H](C(=O)N[C@H](C(=O)OC1CCCC1)c1ccccc1)[C@H](O)C(=O)NO [Tosedostat] + NC(=O)Nc1cc(-c2cccc(F)c2)sc1C(=O)N[C@H]1CCCNC1 [AZD7762] (partner 0.2 µM)
Method in brief: (§1)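 After 5 days of treatment, lung cancer cells in 1536-well plates were fixed and stained in a single step (final 0.05% Triton X-100, 1% formaldehyde, 1 ug/ml Hoechst) and their nuclei counted on 4× images. Treatment had been applied by pin tool the day after seeding as one drug alone or as a fixed anchor-drug dose with five library-drug doses (not always all listed) in √10 steps. Relative viability is the nuclei count of treated wells divided by that of vehicle wells, and values are medians of duplicate plates.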

[1] = compound: CC1=NN=C(O1)C2=NN=C(C=C2)N3CCC(CC3)OC4=C(C=CC(=C4)F)Cl + N=C(N)NC(=N)NCCc1ccccc1 [Phenformin] (partner 250 µM)
Method in brief: as §1

Tosedostat + Tozasertib = compound: CC(C)C[C@@H](C(=O)N[C@H](C(=O)OC1CCCC1)c1ccccc1)[C@H](O)C(=O)NO [Tosedostat] + Cc1cc(Nc2cc(N3CCN(C)CC3)nc(Sc3ccc(NC(=O)C4CC4)cc3)n2)n[nH]1 [Tozasertib] (partner 0.1 µM)
Method in brief: as §1

Tosedostat + Pemetrexed = compound: CC(C)C[C@@H](C(=O)N[C@H](C(=O)OC1CCCC1)c1ccccc1)[C@H](O)C(=O)NO [Tosedostat] + Nc1nc2[nH]cc(CCc3ccc(C(=O)N[C@@H](CCC(=O)O)C(=O)O)cc3)c2c(=O)[nH]1 [Pemetrexed] (partner 0.2 µM)
Method in brief: as §1

Cell Line | relative viability (Tosedostat + AZD7762; first compound 0.02 µM) | relative viability (Tosedostat + AZD7762; first compound 0.06325 µM) | relative viability (Tosedostat + AZD7762; first compound 0.2 µM) | relative viability (Tosedostat + AZD7762; first compound 0.6325 µM) | relative viability (Tosedostat + AZD7762; first compound 2 µM) | relative viability ([1]; first compound 0.253 µM) | relative viability ([1]; first compound 0.8 µM) | relative viability ([1]; first compound 2.53 µM) | relative viability ([1]; first compound 8 µM) | relative viability (Tosedostat + Tozasertib; first compound 0.02 µM) | relative viability (Tosedostat + Tozasertib; first compound 0.06325 µM) | relative viability (Tosedostat + Tozasertib; first compound 0.2 µM) | relative viability (Tosedostat + Tozasertib; first compound 0.6325 µM) | relative viability (Tosedostat + Tozasertib; first compound 2 µM) | relative viability (Tosedostat + Pemetrexed; first compound 0.02 µM) | relative viability (Tosedostat + Pemetrexed; first compound 0.06325 µM) | relative viability (Tosedostat + Pemetrexed; first compound 0.2 µM) | relative viability (Tosedostat + Pemetrexed; first compound 0.6325 µM) | relative viability (Tosedostat + Pemetrexed; first compound 2 µM)
NCI-H1734 | 0.614 | 0.535 | 0.504 | 0.411 | 0.466 | 0.429 | 0.32 | 0.405 | 0.395 | 0.24 | 0.242 | 0.278 | 0.229 | 0.208 | 0.455 | 0.446 | 0.428 | 0.517 | 0.435
NCI-H1755 | 0.43 | 0.462 | 0.398 | 0.407 | 0.347 | 0.567 | 0.565 | 0.523 | 0.56 | 0.665 | 0.578 | 0.477 | 0.386 | 0.319 | 0.521 | 0.43 | 0.362 | 0.484 | 0.416
NCI-H1793 | 0.458 | 0.584 | 0.546 | 0.231 | 0.338 | 0.402 | 0.385 | 0.37 | 0.315 | 0.289 | 0.386 | 0.295 | 0.31 | 0.289 | 0.659 | 0.832 | 0.838 | 0.849 | 0.598
NCI-H1915 | 0.685 | 0.681 | 0.785 | 0.612 | 0.54 | 0.377 | 0.287 | 0.332 | 0.243 | 0.473 | 0.432 | 0.492 | 0.352 | 0.289 | 0.526 | 0.538 | 0.645 | 0.726 | 0.781
NCI-H1944 | 0.659 | 0.494 | 0.501 | 0.437 | 0.453 | 0.183 | 0.187 | 0.196 | 0.183 | 0.244 | 0.244 | 0.23 | 0.256 | 0.22 | 0.626 | 0.656 | 0.84 | 0.619 | 0.819
NCI-H1975 | 0.768 | 0.776 | 0.7 | 0.654 | 0.608 |  | 0.33 | 0.421 | 0.387 | 0.955 | 0.749 | 0.916 | 0.575 | 0.471 | 0.313 | 0.286 | 0.325 | 0.271 | 0.23
NCI-H1993 | 0.678 | 0.64 | 0.741 | 0.556 | 0.493 | 0.553 | 0.481 | 0.651 | 0.509 | 0.631 | 0.535 | 0.56 | 0.588 | 0.493 | 0.478 | 0.619 | 0.716 | 0.532 | 0.485
NCI-H2085 |  | 1.03 | 1.05 | 0.973 | 0.965 | 0.676 |  | 0.629 | 0.565 | 0.695 | 0.695 | 0.784 | 0.909 | 0.838 |  | 1.02 | 0.929 | 0.959 | 0.714
NCI-H2087 | 1.52 | 1.31 | 1.22 | 1.2 | 1.24 | 0.425 | 0.267 | 0.387 | 0.341 | 0.301 | 0.284 | 0.277 | 0.108 | 0.081 | 0.682 | 0.754 | 0.709 | 0.727 | 0.612
NCI-H2126 | 0.99 | 1.03 | 0.919 | 0.974 | 0.953 | 0.486 | 0.507 | 0.53 | 0.528 | 0.829 | 0.853 | 0.852 | 0.789 | 0.618 | 0.644 | 0.698 | 0.708 | 0.705 | 0.611
NCI-H2170 | 0.85 | 0.94 | 0.948 | 0.976 | 0.892 | 0.336 | 0.291 | 0.355 | 0.323 | 0.737 | 0.728 | 0.734 | 0.707 | 0.689 | 0.262 | 0.29 | 0.244 | 0.348 | 0.352
NCI-H2342 | 0.512 | 0.599 | 0.446 | 0.41 | 0.432 | 0.474 | 0.503 | 0.492 | 0.362 | 0.489 | 0.537 | 0.522 | 0.496 | 0.491 | 0.755 | 0.776 | 0.846 | 0.79 | 0.728
NCI-H2347 | 0.631 | 0.821 | 0.863 | 0.745 | 0.682 |  | 0.382 | 0.493 | 0.359 | 0.519 | 0.509 | 0.504 | 0.435 | 0.41 | 0.443 | 0.425 | 0.434 | 0.421 | 0.374
NCI-H2405 | 0.817 | 0.744 | 0.718 | 0.652 | 0.715 | 0.406 | 0.383 | 0.37 | 0.328 | 0.764 | 0.737 | 0.76 | 0.667 | 0.612 | 1.02 | 1.04 | 1.05 | 0.875 | 0.85
NCI-H3122 | 1.1 | 0.919 | 0.894 | 0.875 | 1.14 | 0.324 | 0.282 | 0.253 | 0.275 | 0.413 | 0.4 | 0.393 | 0.388 | 0.306 | 0.206 | 0.213 | 0.21 | 0.312 | 0.325
PC-3 [JPC-3] | 0.752 | 0.747 | 0.746 | 0.647 | 0.54 | 0.433 | 0.406 | 0.426 | 0.412 | 0.892 | 0.954 | 0.87 | 0.802 | 0.571 | 1.03 | 1.18 | 0.918 | 0.901 | 0.54
PC-14 | 0.434 | 0.352 | 0.314 | 0.273 | 0.0971 | 0.656 |  | 0.463 | 0.567 | 0.586 | 0.562 | 0.52 | 0.51 | 0.399 | 0.125 | 0.135 | 0.157 | 0.124 | 0.09
